What all share (assay): inhibition of tumour cell growth, NCI panel, 48 h
In assay [1] the test system is UO-31 renal.
The test system of assay [2] is OVCAR-4 ovarian.
For assay [3], the system named is MALME-3M melanoma.
For assay [4], the system named is SF-268 CNS.
The subject of assay [5] is MOLT-4 leukemia.
In assay [6] the test system is CCRF-CEM leukemia.
The test system of assay [7] is RXF 393 renal.
Assay [8] relates to A549 NSCLC.
In assay [9] the test system is K-562 leukemia.
In assay [10] the test system is NCI-H522 lung.

Here are results for nine compounds from PubChem BioAssay (NCI).

The structures appear in SMILES notation. “And” between values parts separate entries of the source, which are not always exact repeats. Identical values can stand only once.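 Results reflect a 48-hour exposure of cells in 96-well plates to compound at five concentrations. GI50 = concentration required for 50% inhibition of growth. TGI: total growth inhibition.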

As for `Cc1ccc(NC(=O)CC/C(CC(=O)C(C)(C)C)=N/NC(=O)c2cc3ccccc3cc2O)cc1C`, the TGI in [1] is > 100 µM; in [2], > 100 µM; in assay [3], > 100 µM; in assay [4] it was > 100 µM; in assay [5], > 100 µM; in assay [6], 70.1 µM. Further, the TGI in [7] was > 100 µM.

On to `CC1(C)N=C(/C(Cl)=[N+](/[O-])C(=O)c2ccc(Cl)cc2)C(C)(C)N1O`, for which the TGI is > 100 µM in assay [1]; 68.5 µM in [2]; 35.9 µM in assay [3]; > 100 µM in assay [8]; 89.2 µM in assay [4]; > 100 µM in assay [9]. Further, the TGI in assay [6] is 45.7 µM; in assay [7] it was 38 µM.

Consider `COC(=O)C(Cc1ccccc1)NC(=O)C(CNC(=O)OCc1ccccc1)C(=O)OCc1ccccc1` (centres undefined), for which the TGI in assay [10] was > 100 µM; in assay [1], > 100 µM; in assay [3], > 100 µM; in assay [9], > 100 µM; in [5] it was > 100 µM and 30.3 µM; in assay [6], > 100 µM. In addition, in [7], the TGI came out at 34.1 µM. The GI50 in assay [3] was > 100 µM and 44.4 µM; in assay [5], > 100 µM and 10.4 µM; in assay [6] it was > 100 µM and 38.5 µM.

In the case of `COc1cc(C=O)cc(C=Nc2ccc(Br)cc2)c1O`, the TGI was 23.5 µM in assay [10]; 50.6 µM in assay [1]; > 100 µM in assay [2]; 17.2 µM in assay [3]; > 100 µM in assay [8]; 27.8 µM in assay [4]. Also, the TGI in assay [9] was > 100 µM; in assay [5] it was 62.4 µM; in assay [6] it was 27.7 µM; in assay [7], 15 µM.

In the case of `CC1CC(c2ccccc2)=Nc2ccccc2S1` (centres undefined), the TGI in assay [10], in assay [1], in assay [2], in assay [8], in assay [4] and in assay [9] was > 100 µM each time. Also, the TGI in assay [5], in assay [6] and in assay [7] was > 100 µM throughout.

`O=C(N/N=C/c1ccccc1)c1c(F)c(F)c(F)c(F)c1F`: the TGI was 49.2 µM in assay [10]; > 100 µM in [1]; > 100 µM in assay [2]; > 100 µM in assay [3]; > 100 µM in assay [8]; > 100 µM in assay [4]. The TGI in assay [9], in assay [5], in assay [6] and in [7] was > 100 µM in each case.

`CCC12CCC[C@@]13C=C[C@H](O3)C(C)(C)C2=O` (some centres undefined): the TGI in [10], in assay [1], in assay [2], in assay [3], in assay [8] and in [4] was > 100 µM throughout. The TGI in assay [9], in assay [5], in assay [6] and in assay [7] was > 100 µM throughout.

Regarding `[C-]#[O+].[Cl][Sn]([Cl])[Cl].[Cl][Sn]([Cl])[Cl].[Pt].c1cnc2c(c1)ccc1cccnc12`, the TGI was > 100 µM in assay [10]; > 33.8 µM in [1]; > 27.4 µM in [2]; > 100 µM in assay [3]; > 100 µM in assay [8]; > 79 µM in assay [4]. Further, the TGI is > 48.3 µM in assay [9], > 30.9 µM in assay [5] and > 29.8 µM in assay [6].

Consider `O=C1c2ccccc2-c2c1c1ccccc1c(=O)n2CCCNCCNCCCn1c2c(c3ccccc3c1=O)C(=O)c1ccccc1-2`, for which the GI50 was 0.151 µM in assay [10]; 0.342 µM in [1]; 0.694 µM in assay [2]; 0.681 µM in [3]; 0.0534 µM in assay [8]; 0.0166 µM in assay [4]. The results for the GI50 in assay [9], in [5] and in assay [6] were < 0.0335 µM, < 0.01 µM and 0.0142 µM, respectively. Besides, the TGI in assay [2] is 4.56 µM; in assay [3], 2.27 µM; in assay [8], 1.63 µM; in [4], 2.5 µM; in assay [9], > 100 µM; in [5], > 100 µM. This compound came in with a TGI in assay [6] of 0.498 µM.
